“Also recorded” adds a separate entry of the source.

For orientation: IC50 means the concentration that gives 50% inhibition.

Experiment [1] relates to αSyn-PFF-inoculated primary cortical neurons. The experiment can be described thus: Mitochondrial function (Mito-SOX, TMRM, ATP) in αSyn-PFF-inoculated primary cortical neurons. Format: cell-based, mouse. Conditions: 1 µM daily. The protocol: Primary cortical neurons were isolated from normal E18 mouse cortex (sex undetermined) and cultured using complete culturing kit (cat#: KTC57ECX, TransnetYX Tissue). Briefly, 100,000 cells were seeded on poly-D-lysine coated glass coverslips (PDL15mm, TransnetYX Tissue) and cultured in NbActiv1 medium (NB1, TransnetYX Tissue). Neurons were treated with sonicated human α-Syn-PFF (SPR-322, StressMarq Biosciences) starting on post-seeding Day 5 till Day 14. Starting from post-seeding Day 9, TAT or CS2 peptide was added daily at 1µM. Neurons were fixed on Day 14 and subjected for experiments.
Cells cultured on coverslips or 24-well plates were washed with DPBS and then incubated with 5 µM Mito-SOX™ Red (Invitrogen, M36008), a mitochondrial superoxide indicator, for 10 min at 37 °C. For cells cultured on coverslips, the images were visualized by microscope, and quantification of images was then carried out using NIH ImageJ software. At least 100 cells per group were counted in the analysis.
Cells cultured on coverslips or 24-well plates were washed with DPBS and then incubated with 0.25 µM Tetramethylrhodamine, methyl ester (TMRM) (Invitrogen, T668), for 20 min at 37 °C. For cells cultured on coverslips, the images were visualized by microscope, and quantification of images was then carried out using NIH Fiji ImageJ software. At least 100 cells per group were counted in the analysis.
Cells were seeded in 24-well plates, followed by the indicated treatment. The ATP level in each well was determined using the ATP assay kit according to the manufacturer’s procedures (Cayman Chemical, 700410).

Experiment [2] relates to mThy1-hSNCA mice (midbrain). The experiment can be described thus: Midbrain western blot / co-immunoprecipitation in mThy1-hSNCA mice. It is filed as in vivo, mouse. The procedure:
Tissues were homogenized and incubated on ice for 30 min in total lysis buffer (50 mM Tris–HCl, pH 7.5, 150 mM NaCl, 1% Triton X-100, and protease inhibitor). Tissues were then spun at 12,000 rpm for 10 min at 4 °C; the resulting supernatant was triton-soluble fraction. The pellet was further suspended in total lysis buffer with 1% SDS, sonicated and incubated at 100 °C for 3 min, and followed by 20-s vortex. After two more repeats of 100 °C incubation and vortex, the solution was spun at 12,000 rpm for 10 min at 4 °C; the resulting supernatant was triton-insoluble fraction.
Protein concentrations were measured using the Bradford assay. Proteins (30 µg) were then resuspended in Laemmni buffer, loaded on sodium dodecyl sulfate-polyacrylamide gel electrophoresis gels, and transferred to nitrocellulose membranes. The membranes were probed with the indicated antibodies and visualized by electrochemiluminescence.
C57BL/6 N-Tg (Thy1-SNCA)15Mjff/J (JAX: 017682) breeders (C57Bl/6NJ genetic background) were purchased from Jackson Laboratories. The mice were mated, bred, and genotyped in the animal facility of Case Western Reserve University. All mice were maintained at a 12-hour light/dark cycle (on 6 am, off 6 pm). All randomization and peptide treatments in mThy1-hSNCA mice were prepared by an experimenter not associated with the behavioral and neuropathology analysis. Only male mice were used in the study. mThy1-hSNCA transgenic mice and their age-matched WT littermates were implanted with a 28-day subcutaneous osmotic pump (Alzet, Cupertino CA, Model 2004) containing either TAT control peptide or CS2 peptide, which delivered the peptides at indicated rate (1 or 3 or 10 mg/kg/day). The pump was replaced once every four weeks. All mice were sacrificed at age of 10-month for neuropathology assessment.
Cells or tissues were lysed in total lysis buffer (50mM Tris-HCl, pH 7.5, 150mM NaCl, 1% Triton X-100, and protease inhibitor). Total protein lysates (800 µg) were incubated with the indicated antibodies overnight at 4 °C followed by the addition of protein A/G beads (sc-2003, Santa Cruz) for 2 h at 4 °C. Various recombinant αSyn and Clpp (500 ng) were incubated in in vitro interaction buffer (20mM Tris-HCl pH 7.5, 100mM KCl, 2mM MgCl2 and 0.1% Triton-X100) for 30 min at room temperature, and then incubated with indicated antibodies overnight at 4 °C followed by the addition of protein A/G beads for 2 h at 4 °C. The beads with immuno-precipitates were pulled down at 4000 g and washed four times with total lysis buffer/in vitro interaction buffer in the presence of 0.1% Triton X-100 and were analyzed by western blot analysis.

In experiment [3] the test system is αSyn oligomerization (VN/VC-αSyn), SH-SY5Y cells. The experiment can be described thus: BiFC split-Venus αSyn oligomerization in SH-SY5Y cells. Format: cell-based. An excerpt:
To construct truncated-αSyn plasmids, pcDNA3.1(-) was digested with BsteII and XbaI, and ΔN-, ΔC- and ΔNAC-αSyn was PCR-amplified using self-designed primers and inserted into the plasmid backbone. Cells were transfected with TransIT-2020 (Mirus Bio, LLC) following the manufacturer’s protocol.
The bimolecular fluorescence was examined 24-hour after transfection (n = 3, one-way ANOVA with Tukey’s post-hoc test, scale bar = 30 μm). (D) Quantification of the concentration (ng/ml) of extracellular αSyn monomer and oligomer, and intracellular αSyn oligomer in Tet-inducible SH-SY5Y cells that were pre-treated with TAT or CS2 peptide 30-minute before adding doxycycline (Dox) to induce αSyn expression. The concentration of αSyn species was determined by ELISA (n = 4, one-way ANOVA with Tukey’s post-hoc test; data are mean ± SEM). (E) Representative images of Mito-SOX staining in SH-SY5Y cells that were pre-treated with TAT or CS2 peptide and transfected with split Venus-αSyn vectors. Mitochondrial ROS production was determined by Mito-SOX staining after 24-hour transfection (n = 4, two-tailed Student’s t test, scale bar = 30 μm).
The bimolecular fluorescence was examined 24-hour after the transfection and quantitated (n = 14 areas/group, one-way ANOVA with Tukey’s post-hoc test, data are mean ± SEM).

The mark [4] stands for this setting: 3 and 10 mg/kg/day s.c., 8 weeks, n = 3 mice/group.

On to `CC(C)[C@H](NC(=O)CNC(=O)CNC(=O)CCCCCNC(=O)[C@H](CCCNC(=N)N)NC(=O)[C@H](CCCNC(=N)N)NC(=O)[C@H](CCCNC(=N)N)NC(=O)[C@H](CCC(N)=O)NC(=O)[C@H](CCCNC(=N)N)NC(=O)[C@H](CCCNC(=N)N)NC(=O)[C@H](CCCCN)NC(=O)[C@H](CCCCN)NC(=O)[C@H](CCCNC(=N)N)NC(=O)CNC(=O)[C@@H](N)Cc1ccc(O)cc1)C(=O)N[C@H](C(=O)N[C@H](C(=O)N[C@@H](C)C(=O)O)[C@@H](C)O)C(C)C` [CS2, TAT-C6-GGVVTA], for which, in experiment [1] (n = 4), the “ATP content, PFF neurons” value was “rescued mitochondrial membrane potential and ATP content”. The “mitochondrial ROS, PFF neurons” value in experiment [1] (Mito-SOX, n = 90-100 neurons per group) was “reduced mitochondrial ROS”. Moreover, the “mitochondrial membrane potential, PFF neurons” value in experiment [1] (TMRM, n = 90-100 neurons per group) is “rescued mitochondrial membrane potential”. In addition, in experiment [2] (3 mg/kg/day s.c., anti-ClpP IP, n = 3 mice/group), the “ClpP–αSyn interaction in midbrain” value is “abolish the interaction between ClpP and αSyn”. The “other mitochondrial matrix proteins in midbrain” value in experiment [2] (3 mg/kg/day s.c., western blot of LonP, ClpX, n = 3–5 mice/group) is on record as “without affecting other mitochondrial matrix proteins”. Also, in experiment [2] (setting [4]), the “ClpP expression in midbrain” value was “restored ClpP expression in the midbrain”; the “detergent-insoluble αSyn in midbrain” value was “reduced levels of soluble pS129-αSyn and detergent-insoluble αSyn”; the “soluble pS129-αSyn in midbrain” value is reported as “reduced levels of soluble pS129-αSyn”. The “ClpP–αSyn interaction, 3 vs 10 mg/kg/day” value in experiment [2] (s.c., comparison with 10 mg/kg/day) is recorded as “without disparity from 10 mg/kg/day”. The “αSyn oligomerization, ClpP-deficient cells” value in experiment [3] (ClpPsh SH-SY5Y, effect of reducing αSyn oligomerization, n = 14 areas/group) is listed as “no protective effect; also recorded: not observed in ClpP-deficient cells”. Besides, the “BiFC signal / αSyn oligomerization” value in experiment [3] (SH-SY5Y expressing VN/VC-αSyn, 24-hour after transfection) is given as “significantly reduced BiFC signal intensity”. Also, in experiment [3] (SH-SY5Y expressing VN/VC-αSyn, pretreatment, 24-hour after transfection, n = 3, read-out: IC50, BiFC αSyn oligomer formation), the half-inhibitory concentration (IC50) is approximately 2500 nM.

The values are drawn from publication PMC12751141, “Disrupting α-Synuclein–ClpP interaction restores mitochondrial function and attenuates neuropathology in Parkinson’s disease models” (Molecular Neurodegeneration, 2025).
